In ChEMBL document CHEMBL1201862, “PubChem BioAssay data set” (2004):
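Compound exposure: 48 hours, 5 concentrations, 96-well plates. GI50: concentration for 50% inhibition of growth.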 Active and inactive are the calls of the source. No stated cut-off is given here; in the data, active = GI50 up to about 1.1 µM and inactive = higher.

Key:
Experiment in all cases: NCI-60 cell line screen, 48 h
[1] = test system: A498
[2] = test system: HCC 2998
[3] = test system: HCT-116
[4] = test system: HCT-15
[5] = test system: HOP-62
[6] = test system: HT-29
[7] = test system: Hs-578T
[8] = test system: M14
[9] = test system: Malme-3M
[10] = test system: NCI-H23
[11] = test system: NCI-H522
[12] = test system: NCI/ADR-RES
[13] = test system: OVCAR-3
[14] = test system: SF-539
[15] = test system: SK-MEL-28
[16] = test system: SK-MEL-2
[17] = test system: SK-MEL-5
[18] = test system: SW-620
[19] = test system: U-251
[20] = test system: UACC-62

SMILES: CC1(C)c2ccccc2C(O)C12CCC(=O)CC2 (stereo not given)
- GI50 [1]: > 100 µM (inactive)
- GI50 [2]: > 100 µM (inactive)
- GI50 [3]: 9.2 µM (inactive)
- GI50 [4]: > 100 µM
- GI50 [5]: > 100 µM (inactive)
- GI50 [6]: > 100 µM (inactive)
- GI50 [7]: > 100 µM (inactive)
- GI50 [8]: > 100 µM (inactive)
- GI50 [9]: > 100 µM (inactive)
- GI50 [10]: > 100 µM (inactive)
- GI50 [11]: > 100 µM (inactive)
- GI50 [12]: > 100 µM (inactive)
- GI50 [13]: > 100 µM (inactive)
- GI50 [14]: > 100 µM (inactive)
- GI50 [15]: > 100 µM (inactive)
- GI50 [16]: > 100 µM (inactive)
- GI50 [17]: > 100 µM (inactive)
- GI50 [18]: > 100 µM (inactive)
- GI50 [19]: > 100 µM (inactive)
- GI50 [20]: > 100 µM (inactive)

SMILES: COc1ccc([N+](=O)[O-])c2c(NCCCN(C)C)ccnc12
- GI50 [1]: 2.33 µM (inactive)
- GI50 [2]: 2.84 µM (inactive)
- GI50 [3]: 3.77 µM (inactive)
- GI50 [4]: 1.85 µM
- GI50 [5]: 3.66 µM (inactive)
- GI50 [6]: 3.66 µM (inactive)
- GI50 [7]: 6.35 µM (inactive)
- GI50 [8]: 6.52 µM (inactive)
- GI50 [9]: 2.43 µM (inactive)
- GI50 [10]: 2.32 µM (inactive)
- GI50 [11]: 1.46 µM (inactive)
- GI50 [12]: 15.8 µM (inactive)
- GI50 [13]: 2.39 µM (inactive)
- GI50 [14]: 4.6 µM (inactive)
- GI50 [15]: > 63.4 µM (inactive)
- GI50 [16]: 2.05 µM (inactive)
- GI50 [17]: 2.12 µM (inactive)
- GI50 [18]: 4.7 µM (inactive)
- GI50 [19]: 4.93 µM (inactive)
- GI50 [20]: 3.61 µM (inactive)

SMILES: CCOP(=O)(OCC)C(c1ccccc1)N(C(=O)NC(F)(F)F)c1ccc(C)cc1 (stereo not given)
- GI50 [1]: > 100 µM (inactive)
- GI50 [2]: > 100 µM (inactive)
- GI50 [3]: > 100 µM (inactive)
- GI50 [4]: > 100 µM
- GI50 [5]: > 100 µM (inactive)
- GI50 [6]: > 100 µM (inactive)
- GI50 [7]: 69.5 µM (inactive)
- GI50 [8]: > 100 µM (inactive)
- GI50 [9]: > 100 µM (inactive)
- GI50 [10]: > 100 µM (inactive)
- GI50 [11]: > 100 µM (inactive)
- GI50 [12]: > 100 µM (inactive)
- GI50 [13]: > 100 µM (inactive)
- GI50 [14]: > 100 µM (inactive)
- GI50 [15]: > 100 µM (inactive)
- GI50 [16]: > 100 µM (inactive)
- GI50 [17]: > 100 µM (inactive)
- GI50 [18]: > 100 µM (inactive)
- GI50 [19]: > 100 µM (inactive)
- GI50 [20]: > 100 µM (inactive)

SMILES: Cc1ccc(S(=O)(=O)SC(C)(C)C)cc1
- GI50 [1]: > 100 µM (inactive)
- GI50 [2]: > 43.5 µM (inactive)
- GI50 [3]: 17.6 µM (inactive)
- GI50 [4]: 23.4 µM
- GI50 [5]: > 60.3 µM (inactive)
- GI50 [6]: 13.1 µM (inactive)
- GI50 [7]: 34.2 µM (inactive)
- GI50 [8]: 31.6 µM (inactive)
- GI50 [9]: > 44.4 µM (inactive)
- GI50 [10]: 11.2 µM (inactive)
- GI50 [11]: 14.7 µM (inactive)
- GI50 [12]: 32.6 µM (inactive)
- GI50 [13]: 20.9 µM (inactive)
- GI50 [14]: 32.1 µM (inactive)
- GI50 [15]: 48.4 µM (inactive)
- GI50 [16]: 33.2 µM (inactive)
- GI50 [17]: 46.1 µM (inactive)
- GI50 [18]: 22.2 µM (inactive)
- GI50 [19]: > 100 µM (inactive)
- GI50 [20]: 19.9 µM (inactive)

SMILES: O=c1c2c(no[n+]2[O-])c2ccccc2n1-c1ccccc1
- GI50 [1]: 15.6 µM (inactive)
- GI50 [2]: 10.5 µM (inactive)
- GI50 [3]: 2.17 µM (inactive)
- GI50 [4]: 2.94 µM
- GI50 [5]: 15.1 µM (inactive)
- GI50 [6]: 4.89 µM (inactive)
- GI50 [7]: 18.6 µM (inactive)
- GI50 [8]: 2.65 µM (inactive)
- GI50 [9]: 5.7 µM (inactive)
- GI50 [10]: 2.44 µM (inactive)
- GI50 [11]: 1.73 µM (inactive)
- GI50 [12]: 14.6 µM (inactive)
- GI50 [13]: 12.8 µM (inactive)
- GI50 [14]: 8.26 µM (inactive)
- GI50 [15]: 5.46 µM (inactive)
- GI50 [16]: 11.8 µM (inactive)
- GI50 [17]: 11.1 µM (inactive)
- GI50 [18]: 2.65 µM (inactive)
- GI50 [19]: 5.19 µM (inactive)
- GI50 [20]: 4.05 µM (inactive)

SMILES: COc1cc(CCNC2=CC(=O)c3nc[nH]c3C2=O)ccc1O
- GI50 [1]: 34.4 µM (inactive)
- GI50 [2]: 20.7 µM (inactive)
- GI50 [3]: 19.6 µM (inactive)
- GI50 [4]: 33 µM
- GI50 [5]: 40.1 µM (inactive)
- GI50 [6]: 23.6 µM (inactive)
- GI50 [7]: 25.2 µM (inactive)
- GI50 [8]: 17.5 µM (inactive)
- GI50 [9]: 13.1 µM (inactive)
- GI50 [10]: 20.7 µM (inactive)
- GI50 [11]: 22.7 µM (inactive)
- GI50 [12]: > 100 µM (inactive)
- GI50 [13]: 3.16 µM (inactive)
- GI50 [14]: 34.5 µM (inactive)
- GI50 [15]: 26.7 µM (inactive)
- GI50 [16]: 21.4 µM (inactive)
- GI50 [17]: 14.4 µM (inactive)
- GI50 [18]: 23.8 µM (inactive)
- GI50 [19]: 23.7 µM (inactive)
- GI50 [20]: 19.2 µM (inactive)

SMILES: COC1(CC[C@@H](C)COC2OC(CO)C(O)C(O)C2O)O[C@H]2C[C@H]3[C@@H]4CC=C5C[C@@H](OC6OC(CO)C(O)C(OC7OC(CO)C(O)C(O)C7O)C6OC6OC(C)C(O)C(O)C6O)CC[C@]5(C)[C@H]4CC[C@]3(C)[C@H]2[C@@H]1C (stereo not given in full)
- GI50 [1]: 12.9 µM (inactive)
- GI50 [2]: 3.56 µM (inactive)
- GI50 [3]: 6.64 µM (inactive)
- GI50 [4]: 3.28 µM
- GI50 [5]: 10.4 µM (inactive)
- GI50 [6]: 4.67 µM (inactive)
- GI50 [7]: 8.51 µM (inactive)
- GI50 [8]: 2.37 µM (inactive)
- GI50 [9]: 3.11 µM (inactive)
- GI50 [10]: 14.5 µM (inactive)
- GI50 [11]: 4.62 µM (inactive)
- GI50 [12]: 16 µM (inactive)
- GI50 [13]: 16.8 µM (inactive)
- GI50 [14]: 2.74 µM (inactive)
- GI50 [15]: 5.45 µM (inactive)
- GI50 [16]: 13.7 µM (inactive)
- GI50 [17]: 9.84 µM (inactive)
- GI50 [18]: 2.6 µM (inactive)
- GI50 [19]: 1.89 µM (inactive)
- GI50 [20]: 3.19 µM (inactive)
